Consider three molecules from US20190302102A1, “COMBINATION THERAPIES FOR TREATING BIPOLAR DISORDER, AND METHODS FOR USING THE SAME” (PsychNostics, LLC, priority 2016, published 2019).

Series [1] concerns BD patient. In words: Clinical case observation of tolerability (Example 4). Type of series: in vivo, human. To be noted: very low dosage, given for anxiety; person with BD. The source says: At the time of their first blood draw, they reported having been off of their medications for BD for one month, but had not become clinically symptomatic, and tested in the BD range (“(Before)” of FIG. 4). When retested, they had been taking lithium, quetiapine, and mirtazapine for some time and had been back at work. […] Subsequently, they reported anxiety, occurring while they continued taking lithium, quetiapine, and mirtazapine. They thought they might be experiencing a return of bipolar symptomatology, but this was determined to possibly be situational instead. They had some awareness of issues with their fiancé and this awareness was “bolstered” by the notion that their MPR™ test had been in the normal range on their medication regimen not so many months before. […] They wanted a medication to help their through what they were experiencing, but could not be given benzodiazepines because of a history of difficulty with alcohol. Very low dosage perphenazine was given, in keeping with its old indication for neurotic anxiety.

For series [2], the system named is whole blood cells from BD patients. The series is described as follows: MPR™ (Membrane Potential Ratio) test, agents added to the test buffer in vitro. Type of series: cell-based, human. As to conditions: 1 mM Li alone in EtOH test buffer, whole blood of BD patients.
Protocol: The present inventor developed a ratiometric assay to measure the ratio of the membrane potential called Membrane Potential Ratio (MPR™), using a reference buffer and a test buffer. […] The reference buffer may contain NaCl, CaCl2 and glucose at physiological concentrations. The buffering agent HEPES was also added to the buffer to maintain the pH. […] The test buffer may contain K^+ or no K^+. The membrane potentials were measured in both the buffers and the ratio of the MP in the test buffer to the MP in the reference buffer was designated the “Membrane Potential Ratio” (MPR™).
The membrane potentials of whole blood cells can be measured using two different buffers in a plate reader. The mean MPR™ value is the ratio between the membrane potential of a patient's cells in the test buffer as the numerator and that in the reference buffer as the denominator (for example, determined by statistical analysis of multiple measurements, using the ANOVA and the multiple statistical regression analysis).
As mentioned herein, MPR™ is the ratio between the membrane potential (MP) in the test buffer and that in the reference buffer. In these experiments, the reference buffer contained NaCl, CaCl2, glucose and HEPES, whereas the test buffer contained ethyl alcohol (EtOH) in addition to NaCl, CaCl2, glucose and HEPES. Lithium, inositol and carbachol were added to the test buffer in these experiments.
Whole blood samples were obtained from BD patients, and a portion from each blood sample was suspended in the test buffer for 20 minutes, and a portion from each blood sample was suspended in the reference buffer for 20 minutes. After this incubation, the samples were centrifuged for five minutes, drained, then re-suspended in their respective buffer (test or reference buffer). These samples were then distributed in 96 well plates, and tested in a plate reader (FLx 800 manufactured by BioTek).
Series [3] concerns BD patients. As to conditions: cited from earlier work.
For series [4] the following is noted: blood plasma; Freudenreich et al. 2009; cited from earlier work.

With `OCCN1CCN(CCCN2c3ccccc3Sc3ccc(Cl)cc32)CC1` [perphenazine], in series [1], the “Side effect leading to discontinuation” value is listed as “blurred vision”.
With `[Li]` [Li, lithium], the “MPR™ value” in series [2] (Example 1, FIG. 1) was 0.814; in series [2] (Example 2, FIG. 2) it was 0.757; in series [2] (Example 3, FIG. 3), 0.780. Further, the “side effects at the therapeutic level” value in series [3] (at therapeutic concentration of 1.2 mM) was “nausea, diarrhea, dizziness, muscle weakness, fatigue, and a dazed feeling”. Also, the therapeutic level result in series [3] (lithium level in BD therapy) was “around 1.2 mM”. The toxic level result in series [3] (lithium level in BD therapy) is “about 2 mM”.
On to `CN1CCN(C2=Nc3cc(Cl)ccc3Nc3ccccc32)CC1` [clozapine], for which the “presently used therapeutic levels” value in series [4] was 200 to 1000 ng/mL.
